{
  "source": "paper PMC10897598",
  "about": "“TwinF interface inhibitor FP802 stops loss of motor neurons and mitigates disease progression in a mouse model of ALS” (Cell Reports Medicine, 2024)",
  "key": {"SOD1^G93A mice": {"test_system": "SOD1^G93A mice", "test": "Post-onset treatment of the SOD1G93A ALS mouse model", "type": "in vivo", "text": "Heterozygous SOD1^G93A transgenic mice expressing human SOD1^G93A mutant on a C57BL/6 background (Jackson Laboratory, 004435, RRID:IMSR_JAX:004435) were used in this study.[24]^,[34] Heterozygosity was maintained by mating heterozygous transgenic males with C57BL/6 wild-type females. The animals were provided by the interdisciplinary neurobehavioral core (INBC) at Heidelberg University. Only male wild-type mice and male transgenic mice were used in the experiments. They were housed in groups (maximally three mice/cage) in the INBC, where all behavior experiments were performed. All mice were kept in standard cages (15 cm × 21 cm × 13.5 cm) on a 12:12 h light:dark cycle with ad libitum access to food, water, and nesting material. The treatments were randomly allocated to mice within litter blocks. The experimenter was blinded to the experimental group from the implantation until all analyses were done.\nA total of 83 heterozygous SOD1^G93A and 22 wild-type littermates were employed in this study. Eight WT and 12 SOD1^G93A mice were used to determine the EAAT2 protein levels in the spinal cord. Three SOD1^G93A mice were treated with FP802 to explore the concentration of FP802 in the spinal cord. Four SOD1^G93A mice were used to test the tolerability of mice to subcutaneously ALZET osmotic pump (type 2004) implantation with FP802 that allowed a continuous and constant supply of compound to the animals for 4 weeks. Eight wild-type mice were used to explore the disruption of the NMDAR/TRPM4 death signaling complex by FP802. In total, 52 SOD1^G93A mice were treated with FP802 or vehicle via ALZET osmotic pump from week 15 for 30 days (four cohorts). It was not possible to extend the treatment beyond the 30 days application period because the poor health state of many animals was incompatible with the anesthesia required for surgical implantation of a second osmotic pump. The number of animals used for experiments was specified in the figure legends. […] In addition, six wild-type littermates and 12 SOD1^G93A mice were used at week 19 and week 15, respectively, for the analysis of motor neuron survival and serum NfL levels. For the analysis of motor neuron survival, three mice (two from wild-type littermates, one from vehicle-treated SOD1^G93A mice) were excluded from the motor neuron survival because of the loss of sample during preparation.\nBodyweight and neurological scores were examined weekly starting at the onset of symptoms at week 15, which has been defined by previous studies with the same mouse line.[33]^,[34] Neurological scores of the mice were recorded as 0–4 based on the behavior of their hind limbs.[46] The humane endpoint was defined as the mouse’s inability to rectify itself in 30 s and examined daily from week 19 without knowing the treatment group.\nBefore experiments, mice were habituated to the experimenter and testing room by gentle handling for 1 min in 3 consecutive days. A brief video was taken in the behavior room where the SOD1^G93A mice were placed in an open chamber. On the experimental day, the mice were placed into an open arena (50 cm × 50 cm × 50 cm) for a total of 10 min experiment. The total traveled distance of each mouse was traced and analyzed with SYGNIS software, and also the rearing time was reordered without knowledge of the treatment.\nThe survival of motor neurons was examined by quantifying the motor neuron marker, choline acetyltransferase (ChAT)-positive neurons, and the inflammation was examined by quantifying the microglial cell marker, ionized calcium binding adaptor molecule 1 (Iba1), in the ventral horn of lumbar spinal cord (L3-L5). All control mice and SOD1 mice were perfused with 20 mL PBS followed by 20 mL of 4% paraformaldehyde in PBS. The lumbar spinal cord was dissected and post-fixed in the same solution for an additional 10 min, followed by 24 h incubation with 30% sucrose solution in PBS. […]"}, "[1]": {"test_system": "primary mouse cortical neurons", "conditions": "FP802 10 μM, 30 min pre-incubation, NMDA 20 μM, 2 h"}, "[2]": {"test": "FP802 concentration in the spinal cord after subcutaneous osmotic pump delivery", "type": "in vivo", "text": "We next used FP802 in the transgenic SOD1^G93A mouse model of ALS that expresses mutant human SOD1 with a glycine to alanine substitution at position 93 and whose general features resemble ALS in humans.[24]^,[25] SOD1^G93A mice represent a widely accepted animal model used extensively in ALS drug discovery to evaluate the efficacy of compounds now in clinical trials, which include masitinib, pridopidine, fasudil, guanabenz, and AMX0035.[26]^,[27]^,[28]^,[29]^,[30]^,[31]^,[32] We first confirmed using immunoblot analysis the reduction of EAAT2/GLT-1 expression in the spinal cord of SOD1^G93A mice (Figures 1F and 1G). Deregulation of glutamate uptake systems may lead to an increase in toxic eNMDAR signaling, which could be the cause of motor neuron death. To test this hypothesis, we applied FP802 subcutaneously to SOD1^G93A mice using an implanted ALZET osmotic mini pump to achieve a steady release of the drug. […] Following successful deactivation of the NMDAR/TRPM4 death signaling complex by FP802 in vivo, we next assessed potential therapeutic benefits of FP802 in SOD1^G93A mice. To implement an experimental design that resembles a clinical situation, we started treatment of SOD1^G93A mice with FP802 at the time of onset of motor deficits, which was around week 15.[33]^,[34]\nA total of 83 heterozygous SOD1^G93A and 22 wild-type littermates were employed in this study. Eight WT and 12 SOD1^G93A mice were used to determine the EAAT2 protein levels in the spinal cord. Three SOD1^G93A mice were treated with FP802 to explore the concentration of FP802 in the spinal cord. Four SOD1^G93A mice were used to test the tolerability of mice to subcutaneously ALZET osmotic pump (type 2004) implantation with FP802 that allowed a continuous and constant supply of compound to the animals for 4 weeks. Eight wild-type mice were used to explore the disruption of the NMDAR/TRPM4 death signaling complex by FP802. In total, 52 SOD1^G93A mice were treated with FP802 or vehicle via ALZET osmotic pump from week 15 for 30 days (four cohorts). […]"}, "[3]": {"conditions": "FP802 for 4 weeks from week 15, vs vehicle"}},
  "data": [
    {"smiles": "CCN(CCN)Cc1cccc(Cl)c1", "note": "[FP802]", "values": [
      {"measurement": "EAAT/GLT-1 expression in lumbar spinal cord", "setting": "SOD1^G93A mice; 40 mg/kg/day for 4 weeks from week 15, immunoblot", "value": "no significant effect"},
      {"measurement": "neurological scores", "setting": "SOD1^G93A mice; FP802 for 4 weeks from week 15 (onset), s.c. osmotic pump, vs vehicle", "value": "significantly better"},
      {"measurement": "body weight losses", "setting": "SOD1^G93A mice; [3]", "value": "lower"},
      {"measurement": "motor performance, total distances traveled in an open field", "setting": "SOD1^G93A mice; [3]", "value": "significantly improved"},
      {"measurement": "rearing behavior in open field", "setting": "SOD1^G93A mice; [3]", "value": "frequent rearing behavior"},
      {"measurement": "survival median (lifespan)", "setting": "SOD1^G93A mice; FP802 for 4 weeks starting at week 15, vehicle 151 days", "value": 164, "unit": "days"},
      {"measurement": "neuroinflammatory response, microglia marker Iba1", "setting": "SOD1^G93A mice; ventral horn of lumbar spinal cord, week 19", "value": "not affected"},
      {"measurement": "serum levels of neurofilament light (NfL) chain", "setting": "SOD1^G93A mice; week 19, treatment from week 15", "value": "reduction"},
      {"measurement": "soma sizes of lumbar spinal motor neurons", "setting": "SOD1^G93A mice; week 19, vs control-treated SOD1G93A mice", "value": "larger"},
      {"measurement": "number of lumbar spinal motor neurons (ChAT-positive)", "setting": "SOD1^G93A mice; week 19 vs week 15, treatment from week 15", "value": "no additional death"},
      {"measurement": "transcriptional shut-off induced by eNMDARs", "setting": "[1]", "value": "eliminated"},
      {"measurement": "NMDA bath application-induced expression of IEGs Atf3, Arc, Bdnf, cFos, Inhibin beta A, Npas4", "setting": "[1]; RT-qPCR, levels comparable to bicuculline-induced AP bursting", "value": "boosted"},
      {"measurement": "concentration in the spinal cord", "setting": "[2]; SOD1G93A mice, 40 mg/kg/day s.c. ALZET osmotic pump, 2 weeks, n = 3", "value": "7.54 ± 4.79", "unit": "nmol/g"},
      {"measurement": "concentration at 2 weeks", "setting": "[2]; SOD1G93A transgenic, mouse, spinal cord, sc, SOD1G93A mice, 40 mg/kg/day s.c., 2 weeks, read-out: concentration in the spinal cord, corresponding molar concentration", "value": "3 to 12", "unit": "µM"},
      {"measurement": "crossing of the mouse blood-spinal cord barrier", "setting": "[2]; s.c. ALZET osmotic mini pump", "value": "readily crossed"}
    ]}
  ]
}
